The test system of assay [1] is ABCC3-overexpressing EVSA-T cells. Description: ATP-based luminescence viability assay, ABCC3-overexpressing EVSA-T clones. It is filed as cell-based, human. The conditions noted are these: for inhibition of cell growth compared to vector-alone control stable cell line: all three overexpressing cell lines, ATP-based luminescence assay (FIG. 5); for EC50: three day assay, read-out: EC50 (concentration that resulted in half-maximal response). From the text:
(§1) The control cell line in FIG. 5 is in fact a clone of EVSA-T derived after transfection with an empty vector and in the particular experiment shown achieved an IC50.
(§2) For ABCC3 overexpression experiments a full length ABCC3 cDNA cloned in the CMV promoter containing vector pCMV5 (Invitrogen, Carlsbad, Calif.) was verified by sequencing the entire coding sequence. The construct was transfected into EVSA-T cells and stable clones were selected by growth in lmg/ml geneticin (Invitrogen Carlsbad, Calif.). Overexpression of ABCC3 in stable clones was confirmed by qRT-PCR on cDNA derived from lines containing pCMV5-ABCC3, pCMV5 vector alone, or the parental EVSA-T strain. All stable cell lines described in this report were determined in qRT-PCR experiments to express at least 25-35× more ABCC3 transcript than vector control lines or the parental cell line.
(§3) Three independently derived lines were confirmed to overexpress ABCC3 transcripts and screened for in vitro sensitivity to paclitaxel and MMAE using an ATP-based luminescence assay. […] The EC50 for the vector control treated with paclitaxel was 0.2 nM while the EC50 values for the ABCC3-expressing lines were 5 nM, 10 nM, and 80 nM, respectively.
EVSA-T cells were stably transfected with an ABCC3 containing plasmid where ABCC3 is expressed at high levels from a cytomegalovirus (CMV) promoter. Overexpression of ABCC3 was confirmed by qRT-PCR.

For the next assay, the system named is EFM-192A cells. Description: Mitotic index (phospho histone H3) after ABCC3 or control siRNA, EFM-192A. The following applies: for sensitivity (mitotic response) of ABCC3 siRNA transfected cells vs control siRNA (NTC) transfected cells: EFM-192A cells. The assay is classed as cell-based, human. As to the method: High content screening assays were carried out on an Arrayscan VTI (Cellomics Inc, Pittsburgh, Pa.). Cells were transfected in 96 well format using siRNA “Smartpool” oligonucleotides purchased from Dharmacon Inc and Oligofectamine transfection reagents. To prioritize genes for functional studies, 2-sided Wilcoxon rank sum tests using the R programming language (http://www.r-project.org) were done to identify genes with a significant difference in gene expression in cell lines with more than 4 copies compared to those with less than 4 copies of the 17q21.3 amplicon. This analysis combined with availability of reagents for RNAi experiments led to the selection of the following 24 genes for functional studies in the EFM-192A cell line: ABCC3, COL1A1, CROP, EAP, EPN3, FLJ13855, F1120920, HOXB7, LOC201191, ITGB3, KIAA0924, KPNB1, LOC400604, LOC81558, MGC11242, MGC15396, NDP52, PDK2, PHB, PP1R9B, SLC35B1, SPOP, TOB1, WNT3. Follow-up studies with ABCC3 siRNA were conducted in the additional cell lines ZR75-30, MDAMB-453 and HCC-1428. […] After 48 hours or 72 hours incubation at 37 C, cells were fixed in 3.7% formaldehyde and permeabilized in 0.1% Triton X-100, followed by labeling with a 1:500 dilution of anti-phospho histone H3 (pH3, Upstate) and subsequent 1:250 dilution of Alexa-fluor 488 (Molecular probes) Goat anti-rabbit secondary antibody. Cells were counterstained with Hoechst-33258 to allow identification of nuclei and the percentage of cells positive for nuclear pH3 immunofluorescence, also known as the Mitotic Index (30), was then quantitated for at least 1000 cells per well using Cellomics Target Activation software.
Phosphorylation at Ser10 of histone H3 is tightly correlated with chromosome condensation during M phase, and the percentage of cells that are positive for pH3 staining, or mitotic index, can be determined through an immunofluorescence assay.

Assay [2] has as its system HER2-positive metastatic breast cancer. The method, then: ABCC3 FISH analysis was performed on samples obtained from the T-DM1 Phase II (TDM4258G) trial to explore the effect of ABCC3 amplification on T-DM1 activity in HER2 amplified breast tumors. The TDM4258G trial is a multi-institutional, open-label, single-arm, Phase II study of T-DM1 administered by IV infusion to patients with HER2-positive metastatic breast cancer. The patients in the trial had shown prior progression on HER2-directed therapy. Formalin Fixed Paraffin Embedded (FFPE) archival tumor tissue samples from the clinical trial was obtained from the clinical investigation sites with appropriate IRB approval and patient consent.
The FISH assay was performed on the clinical trial samples as described in Example 1. […] Those samples with ABCC3/CEP17 ratios of 1.8 and above are considered to have ABCC3 amplification.

For the next assay, the system named is EFM192A. Description: Celltiter-Glo Luminescent Cell Viability Assay, EFM192A. The assay is classed as cell-based, human. The conditions noted are these: 72 hours. The method, then: (§4) For MMAE and paclitaxel IC50 determination, cells were plated in quadruplicate at a density of 3000 cells per well in 384-well plates in normal growth medium and allowed to adhere overnight. Paclitaxel (Sigma) or MMAE (Seattle Genetics, Seattle, Wash.) were added in 10 concentrations based on a three-fold dilution series (1 μmol/L maximal paclitaxel or 0.1 μmol/L maximal for MMAE).
(§5) Cell viability was measured 72 hours later using the Celltiter-Glo Luminescent Cell Viability Assay (Promega, Madison, Wis.). The concentration of drug resulting in the 50% inhibition of cell viability (IC50) was calculated from a four-parameter curve analysis (XLfit, 1DSS software) and was determined from a minimum of three experiments. […] FIG. 6 provides examples of representative cell viability experiments for six cell lines. Cell lines EFM192A, NDAMB361, and BT474 were classified as resistant to each agent in the bioinformatic analysis. AU565, EFM19, and MDAMB468 were classified as sensitive. IC50 values from fitted curves are shown in the charts to the right of each graph.

The test system of the next assay is NDAMB361. Description: Celltiter-Glo Luminescent Cell Viability Assay, NDAMB361. The assay is classed as cell-based, human. The conditions noted are these: NDAMB361, 72 hours. The method, then:
as §4, §5
For orientation: In ATP-based viability assays light output follows the ATP content of the culture.

A further assay concerns BT474. Put plainly: Celltiter-Glo Luminescent Cell Viability Assay, BT474. The assay is classed as cell-based, human. The following applies: BT474, 72 hours. The method, then:
as §4, §5

Assay [3] concerns EVSA-T cells (empty vector control clone). Put plainly: ATP-based luminescence viability assay, EVSA-T vector control line. The assay is classed as cell-based, human. The following applies: three day assay, read-out: EC50 (concentration that resulted in half-maximal response).
Source text: as §1, §2, §3

For another assay, the system named is AU565. Put plainly: Celltiter-Glo Luminescent Cell Viability Assay, AU565. It is filed as cell-based. The following applies: Homo sapiens; AU565, 72 hours; read-out: classification in the bioinformatic analysis (IC50 cell viability), paclitaxel. As to the method: as §4, §5
Another assay has as its system EFM19. Description: Celltiter-Glo Luminescent Cell Viability Assay, EFM19. The assay is classed as cell-based. The following applies: Homo sapiens, EFM-19; EFM19, 72 hours; read-out: classification in the bioinformatic analysis (IC50 cell viability), paclitaxel. As to the method: as §4, §5
Another assay deals with MDAMB468. Description: Celltiter-Glo Luminescent Cell Viability Assay, MDAMB468. It is filed as cell-based. The following applies: Homo sapiens, MDA-MB-468; MDAMB468, 72 hours; read-out: classification in the bioinformatic analysis (IC50 cell viability), paclitaxel. The method, then:
as §4, §5

The next assay concerns ZR75-30. Put plainly: Mitotic index (phospho histone H3) after ABCC3 or control siRNA, ZR75-30. The conditions noted are these: ZR75-30 (ABCC3 amplified), drug-treated cells. The assay is classed as cell-based, human. As to the method: (§6) High content screening assays were carried out on an Arrayscan VTI (Cellomics Inc, Pittsburgh, Pa.). Cells were transfected in 96 well format using siRNA “Smartpool” oligonucleotides purchased from Dharmacon Inc and Oligofectamine transfection reagents. To prioritize genes for functional studies, 2-sided Wilcoxon rank sum tests using the R programming language (http://www.r-project.org) were done to identify genes with a significant difference in gene expression in cell lines with more than 4 copies compared to those with less than 4 copies of the 17q21.3 amplicon. […] Cells were counterstained with Hoechst-33258 to allow identification of nuclei and the percentage of cells positive for nuclear pH3 immunofluorescence, also known as the Mitotic Index (30), was then quantitated for at least 1000 cells per well using Cellomics Target Activation software.
(§7) An RNA interference strategy was used to identify the gene responsible for mediating resistance to taxanes and auristatins in amplified cell lines. […] Phosphorylation at Ser10 of histone H3 is tightly correlated with chromosome condensation during M phase, and the percentage of cells that are positive for pH3 staining, or mitotic index, can be determined through an immunofluorescence assay. […]

A further assay deals with HCC-1428. Put plainly: Mitotic index (phospho histone H3) after ABCC3 or control siRNA, HCC-1428. The conditions noted are these: HCC-1428 (non-amplified), drug-treated cells. It is filed as cell-based, human. The method, then:
as §6, §7

The next assay deals with MDA-MB-453. Description: Mitotic index (phospho histone H3) after ABCC3 or control siRNA, MDA-MB-453. It is filed as cell-based, human. The conditions noted are these: MDA-MB-453 (non-amplified), drug-treated cells. As to the method: as §6, §7
Where [4] appears, read: read-out: classification in the bioinformatic analysis (IC50 cell viability), MMAE.

Data on four compounds can be found in US11021711B2, “Genetic variations associated with drug resistance” (GENENTECH, Inc., priority 2008, dated 2021).

Usually IC50 stands for the concentration that inhibits the measured activity by half.

Like-named read-outs stand apart in the source and are kept apart here. Square brackets hold non-standard residues; d marks the D form. Peptide text beside a SMILES is read from it. * marks the point of attachment. Dolaproine = CO[C@@H]([C@@H]1CCCN1)[C@@H](C)C(=O)O; Dil = CC[C@H](C)[C@H](NC)[C@@H](CC(=O)O)OC; X1 = C[C@@H](N*)[C@@H](O)c1ccccc1; NMeV = CN[C@H](C(=O)O)C(C)C

With `COc1cc2cc(c1Cl)N(C)C(=O)C[C@H](OC(=O)[C@H](C)N(C)C(=O)CCS)[C@]1(C)O[C@H]1[C@H](C)[C@@H]1C[C@@](O)(NC(=O)O1)[C@H](OC)/C=C/C=C(\C)C2` [DM1], the “sensitivity to free DM1 vs control cell line” value in assay [1] (three ABCC3 overexpressing clones, standard cell viability assay (FIG. 7)) is recorded as “more resistant”. For the same compound, in the assay with EFM-192A cells, the “sensitivity (mitotic response) of ABCC3 siRNA transfected cells vs control siRNA (NTC) transfected cells” value was “more sensitive”.
For the compound Trastuzumab-MCC-DM1 [T-DM1], the “sensitivity (mitotic response) of ABCC3 siRNA transfected cells vs control siRNA (NTC) transfected cells” value in the assay on EFM-192A cells is given as “more sensitive”. Moreover, the “patients who responded to treatment” value in [2] (samples with amplification of ABCC3 (ABCC3/CEP17 ratio 1.8 and above), 2/5, IV infusion) is 40%; in [2] (samples with no amplification of ABCC3 (ABCC3/CEP17 below 1.8), 12/15, IV infusion), 80%.
On to `CC[C@H](C)[C@@H]([C@@H](CC(=O)N1CCC[C@H]1[C@H](OC)[C@@H](C)C(=O)N[C@H](C)[C@@H](O)c1ccccc1)OC)N(C)C(=O)[C@@H](NC(=O)[C@@H](NC)C(C)C)C(C)C` [MMAE, monomethyl auristatin E] (H-[NMeV]V[Dil][Dolaproine]-X1), for which the IC50 with EFM192A (setting [4]), in the assay with NDAMB361 (setting [4]) and with BT474 (setting [4]) was greater than 100 nM in each case. For the same compound, the EC50 in assay [3] was 0.05 nM; in assay [1] (first ABCC3-expressing EVSA-T line), 1.5 nM; in assay [1] (second ABCC3-expressing EVSA-T line) it was 12 nM; in assay [1] (third ABCC3-expressing EVSA-T line), 90 nM. Also, the “inhibition of cell growth compared to vector-alone control stable cell line” value in assay [1] was “markedly less inhibition of cell growth”.
With `CC(=O)O[C@H]1C(=O)[C@@]2(C)[C@H]([C@H](OC(=O)c3ccccc3)[C@]3(O)C[C@H](OC(=O)[C@H](O)[C@@H](NC(=O)c4ccccc4)c4ccccc4)C(C)=C1C3(C)C)[C@]1(OC(C)=O)CO[C@@H]1C[C@@H]2O` [paclitaxel], the IC50 in the assay on EFM192A (Homo sapiens, EFM-192A, read-out: classification in the bioinformatic analysis (IC50 cell viability), paclitaxel) is greater than 1000 nM; in the assay with NDAMB361 (Homo sapiens, read-out: classification in the bioinformatic analysis (IC50 cell viability), paclitaxel), greater than 1000 nM; in the assay with BT474 (Homo sapiens, BT-474, read-out: classification in the bioinformatic analysis (IC50 cell viability), paclitaxel) it was greater than 1000 nM; in the assay on AU565, less than 10 nM; in the assay with EFM19 it was less than 10 nM; in the assay on MDAMB468 it was less than 10 nM. The EC50 in [3] (Homo sapiens, 72 h) worked out at 0.2 nM; in [1] (Homo sapiens, EVSA-T, 72 h, first ABCC3-expressing EVSA-T line), 5 nM; in [1] (Homo sapiens, EVSA-T, 72 h, second ABCC3-expressing EVSA-T line) it was 10 nM; in assay [1] (Homo sapiens, EVSA-T, 72 h, third ABCC3-expressing EVSA-T line), 80 nM. Further, the “inhibition of cell growth compared to vector-alone control stable cell line” value in assay [1] was “markedly less inhibition of cell growth”. Moreover, the “change in mitotic index, ABCC3 RNAi relative to non-targeting control siRNA” value is “two to three fold increase” with EFM-192A cells (EFM-192A (ABCC3 amplified), drug-treated cells); “two to three fold increase” in the assay with ZR75-30; “did not appreciably alter” with HCC-1428; “did not appreciably alter” with MDA-MB-453.
